Test results reported in the NIST ThermoML archive (doi:10.1021/je400551d).
Values joined by “and” are separate entries in the source; they are usually repeats but may differ in a detail not shown here. Identical values can stand only once.

Conditions: Liquid, Manometric method

OCCO [1,2-ethanediol]
Conditions	vapor or sublimation pressure [kPa]
336.45 K	0.2527
345 K	0.4838
355.15 K	0.9002
369.25 K	1.69
374.45 K	2.13
378.95 K	2.66
384.45 K	3.57
388.1 K	4.4
391.45 K	5.33
394.56 K	6.01
397.25 K	7.14
404.05 K	9.2
408.25 K	11.34

COC(N)=O [carbamic acid, methyl ester]
Conditions	vapor or sublimation pressure [kPa]
341.45 K	1.31
350.9 K	1.91
356.06 K	2.5
360.75 K	3.55
364.43 K	4.19
367 K	4.48
371.7 K	5.42
373.85 K	6.23
377.23 K	7.14
384.9 K	9.83
387.17 K	10.96
390.5 K	12.39
393.75 K	13.99

CCCCCCCCCC [decane]
Conditions	vapor or sublimation pressure [kPa]
299.25 K	0.1732
306.95 K	0.3091
309.15 K	0.4116
316.26 K	0.6545
326.1 K	1.04
340.05 K	1.95
347.9 K	2.97
353.32 K	3.8
358.67 K	4.82
362.85 K	5.92
365.13 K	6.96
370.4 K	8.23
377.13 K	10.48
379.93 K	12
382.83 K	13.25

COC(=O)Nc1ccccc1 [methyl N-phenylcarbamate]
Conditions	vapor or sublimation pressure
372.5 K	0.2093 kPa
374.46 K	0.2248 kPa
376.9 K	0.254 kPa
379.05 K	0.308 kPa
380.65 K	0.3343 kPa
383.31 K	0.3891 kPa
385.85 K	0.4487 kPa
387.85 K	0.4996 kPa
390.35 K	0.5609 kPa
391.76 K	0.5914 kPa
394.05 K	0.651 kPa
395.8 K	0.719 kPa
397.05 K	0.7885 kPa and 0.7897 kPa
399.63 K	0.9364 kPa
399.83 K	0.9418 kPa
402.15 K	1.06 kPa
409.85 K	1.29 kPa
412.9 K	1.54 kPa
415.9 K	1.97 kPa
418.45 K	2.13 kPa

O [water]
Conditions	vapor or sublimation pressure [kPa]
280.2 K	1.29
282.23 K	1.34
287.9 K	1.82
292.36 K	2.13
296.13 K	2.78
300.7 K	3.47
304.8 K	4.54
306.67 K	4.82
309.65 K	5.9
312.07 K	6.75
314.95 K	7.78
316.65 K	8.45
317.9 K	9.45
320.04 K	10.62
322.75 K	11.78
